{"source": "patent US8815881B2", "about": "(Hoffmann-La Roche Inc., priority 2010, dated 2014)"}
{"molecular_target": "endogenous cellular BACE2 in the Ins1e rat cell line (Rattus norvegicus (Rat), UniProt Q6IE75)", "sequence (Q6IE75 63-514)": "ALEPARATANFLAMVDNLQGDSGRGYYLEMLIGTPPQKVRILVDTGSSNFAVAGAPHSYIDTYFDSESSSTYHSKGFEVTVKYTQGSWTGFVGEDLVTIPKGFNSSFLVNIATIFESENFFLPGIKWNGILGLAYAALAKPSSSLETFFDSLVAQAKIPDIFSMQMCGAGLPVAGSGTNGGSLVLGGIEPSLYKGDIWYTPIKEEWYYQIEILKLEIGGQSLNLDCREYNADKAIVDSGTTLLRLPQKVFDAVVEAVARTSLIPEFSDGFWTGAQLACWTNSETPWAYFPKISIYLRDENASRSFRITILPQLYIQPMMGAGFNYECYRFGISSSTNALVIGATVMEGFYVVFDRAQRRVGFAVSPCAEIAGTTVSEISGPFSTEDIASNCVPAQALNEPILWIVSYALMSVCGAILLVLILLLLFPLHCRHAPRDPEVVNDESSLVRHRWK", "experiment": "Assay for BACE inhibition by measuring cellular TMEM27 cleavage (ELISA of shed hTMEM27 from INS-TMEM27 cells)", "assay_type": "cell-based", "settings": "assay a): cellular TMEM27 cleavage, INS-TMEM27 cells (superscript a)", "procedure,_shortened": "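Shed human TMEM27 is quantified by ELISA in medium of TetOn INS1e cells after 46 h at 37 °C. Compound is dosed across a concentration range, followed 2 h later by doxycycline induction at 500 ng/ml. Each concentration's readout is curve-fitted to give the EC50.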", "units": {"IC50": "nM"}}
{"smiles": "CN1C(=O)C(C)(C)[C@@](C)(c2cc(NC(=O)[C@@H]3CC3(F)F)ccc2F)N=C1N", "note": "[Example 10, (S)-2,2-difluoro-cyclopropanecarboxylic acid [3-((S)-2-amino-1,4,5,5-tetramethyl-6-oxo-1,4,5,6-tetrahydro-pyrimidin-4-yl)-4-fluoro-phenyl]-amide]", "IC50": 2}
{"smiles": "Cc1cc(C)c(Nc2ccc(F)c([C@@]3(C)N=C(N)N(C)C(=O)C3(C)C)c2)cc1C", "note": "[Example 146, (S)-2-Amino-6-(2-fluoro-5-(2,4,5-trimethylphenylamino)phenyl)-3,5,5,6-tetramethyl-5,6-dihydropyrimidin-4(3H)-one]", "IC50": 257}
{"smiles": "CN1C(=O)C(C)(C)[C@@](C)(c2cc(NCC3(c4ccccc4)CC3)ccc2F)N=C1N", "note": "[Example 53, (S)-2-Amino-6-{2-fluoro-5-[(1-phenyl-cyclopropylmethyl)-amino]-phenyl}-3,5,5,6-tetramethyl-5,6-dihydro-3H-pyrimidin-4-one]", "IC50": 153}
{"smiles": "CN1C(=O)C(C)(C)[C@@](C)(c2cc(Nc3ccnn3Cc3ccccc3)ccc2F)N=C1N", "note": "[Example 107, (S)-2-Amino-6-(5-(1-benzyl-1H-pyrazol-5-ylamino)-2-fluorophenyl)-3,5,5,6-tetramethyl-5,6-dihydropyrimidin-4(3H)-one]", "IC50": 2}
{"smiles": "CN1C(=O)C(C)(C)[C@@](C)(c2cc(Nc3cccc(F)c3)ccc2F)N=C1N", "note": "[Example 88, (S)-2-Amino-6-[2-fluoro-5-(3-fluoro-phenylamino)-phenyl]-3,5,5,6-tetramethyl-5,6-dihydro-3H-pyrimidin-4-one]", "IC50": 795}
{"smiles": "CC[C@H]1C(=O)N(C)C(N)=N[C@]1(C)c1cccc(NC(=O)C2(C(F)(F)F)CC2)c1", "note": "[Example 11, 1-Trifluoromethyl-cyclopropanecarboxylic acid [3-((4S,5R)-2-amino-5-ethyl-1,4-dimethyl-6-oxo-1,4,5,6-tetrahydro-pyrimidin-4-yl)-phenyl]-amide]", "IC50": 14}
{"smiles": "CN1C(=O)C(C)(C)[C@@](C)(c2cc(Nc3ccccc3OC(F)F)ccc2F)N=C1N", "note": "[Example 73, (S)-2-Amino-6-(5-(2-(difluoromethoxy)phenylamino)-2-fluorophenyl)-3,5,5,6-tetramethyl-5,6-dihydropyrimidin-4(3H)-one]", "IC50": 135}
{"smiles": "CN1C(=O)C(C)(C)[C@@](C)(c2cc(NC(=O)C(F)(F)C(F)(F)F)ccc2F)N=C1N", "note": "[Example 6, N-[3-((S)-2-Amino-1,4,5,5-tetramethyl-6-oxo-1,4,5,6-tetrahydro-pyrimidin-4-yl)-4-fluoro-phenyl]-2,2,3,3,3-pentafluoro-propionamide]", "IC50": 350}
{"smiles": "CN1C(=O)C(C)(C)[C@@](C)(c2cc(NC(=O)[C@@](C)(O)C(F)(F)F)ccc2F)N=C1N", "note": "[Example 142, (R)—N-(3-((S)-2-amino-1,4,5,5-tetramethyl-6-oxo-1,4,5,6-tetrahydropyrimidin-4-yl)-4-fluorophenyl)-3,3,3-trifluoro-2-hydroxy-2-methylpropanamide]", "IC50": 89}
{"smiles": "CC(Nc1ccc(F)c([C@@]2(C)N=C(N)N(C)C(=O)C2(C)C)c1)c1ccn[nH]1", "note": "(stereo partly drawn) [Example 111, (S)-2-Amino-6-{2-fluoro-5-[1-(2H-pyrazol-3-yl)-ethylamino]-phenyl}-3,5,5,6-tetramethyl-5,6-dihydro-3H-pyrimidin-4-one]", "IC50": 46}
{"smiles": "CN1C(=O)C(C)(C)[C@@](C)(c2cc(NCC3(C)CC3(F)F)ccc2F)N=C1N", "note": "(stereo partly drawn) [Example 68, (S)-2-Amino-6-{5-[(2,2-difluoro-1-methyl-cyclopropylmethyl)-amino]-2-fluoro-phenyl}-3,5,5,6-tetramethyl-5,6-dihydro-3H-pyrimidin-4-one]", "IC50": 3}
{"smiles": "CN1C(=O)C(C)(C)[C@@](C)(c2cc(NC(=O)CC3CCC3)ccc2F)N=C1N", "note": "[Example 27, (S)—N-(3-(2-amino-1,4,5,5-tetramethyl-6-oxo-1,4,5,6-tetrahydropyrimidin-4-yl)-4-fluorophenyl)-2-cyclobutylacetamide]", "IC50": 157}
{"smiles": "CN1C(=O)C(C)(C)[C@@](C)(c2cc(NC3CCN(c4ccc(F)cc4)C3)ccc2F)N=C1N", "note": "(stereo partly drawn) [Example 31, (6S)-2-Amino-6-(2-fluoro-5-(1-(4-fluorophenyl)pyrrolidin-3-ylamino)phenyl)-3,5,5,6-tetramethyl-5,6-dihydropyrimidin-4(3H)-one]", "IC50": 37}
{"smiles": "CN1C(=O)C(C)(C)[C@@](C)(c2cc(NC3[C@H]4[C@@H](C[C@H]3O)[C@@H]4C(=O)O)ccc2F)N=C1N", "note": "(stereo partly drawn) [Example 117, (1S,3R,5R,6S)-2-(3-((S)-2-amino-1,4,5,5-tetramethyl-6-oxo-1,4,5,6-tetrahydropyrimidin-4-yl)-4-fluorophenylamino)-3-hydroxybicyclo[3.1.0]hexane-6-carboxylic acid]", "IC50": 226}
{"smiles": "CC1CCC(Nc2ccc(F)c([C@@]3(C)N=C(N)N(C)C(=O)C3(C)C)c2)C1", "note": "(stereo partly drawn) [Example 24, (S)-2-Amino-6-[2-fluoro-5-(3-methyl-cyclopentylamino)-phenyl]-3,5,5,6-tetramethyl-5,6-dihydro-3H-pyrimidin-4-one]", "IC50": 39}
{"smiles": "CN1C(=O)C(C)(C)[C@@](C)(c2cc(NC(=O)C(C(F)(F)F)C(F)(F)F)ccc2F)N=C1N", "note": "[Example 7, N-[3-((S)-2-Amino-1,4,5,5-tetramethyl-6-oxo-1,4,5,6-tetrahydro-pyrimidin-4-yl)-4-fluoro-phenyl]-3,3,3-trifluoro-2-trifluoromethyl-propionamide]", "IC50": 1010}
{"smiles": "Cc1cc(C(C)Nc2ccc(F)c([C@@]3(C)N=C(N)N(C)C(=O)C3(C)C)c2)[nH]n1", "note": "(stereo partly drawn) [Example 125, (S)-2-Amino-6-{2-fluoro-5-[1-(5-methyl-2H-pyrazol-3-yl)-ethylamino]-phenyl}-3,5,5,6-tetramethyl-5,6-dihydro-3H-pyrimidin-4-one]", "IC50": 28}
{"smiles": "Cc1cc(Nc2ccc(F)c([C@@]3(C)N=C(N)N(C)C(=O)C3(C)C)c2)n(C)n1", "note": "[Example 39, (S)-2-Amino-6-[5-(2,5-dimethyl-2H-pyrazol-3-ylamino)-2-fluoro-phenyl]-3,5,5,6-tetramethyl-5,6-dihydro-3H-pyrimidin-4-one]", "IC50": 234}
{"smiles": "CN1C(=O)C(C)(C)[C@@](C)(c2cc(NCCC(F)(F)F)ccc2F)N=C1N", "note": "[Example 54, (S)-2-Amino-6-(2-fluoro-5-(3,3,3-trifluoropropylamino)phenyl)-3,5,5,6-tetramethyl-5,6-dihydropyrimidin-4(3H)-one]", "IC50": 76}
{"smiles": "CN1C(=O)C(C)(C)[C@@](C)(c2cc(NCc3nn(C(F)F)cc3Cl)ccc2F)N=C1N", "note": "[Example 160, (S)-2-Amino-6-{5-[(4-chloro-1-difluoromethyl-1H-pyrazol-3-ylmethyl)-amino]-2-fluoro-phenyl}-3,5,5,6-tetramethyl-5,6-dihydro-3H-pyrimidin-4-one]", "IC50": 6}
{"smiles": "CN1C(=O)C(C)(C)[C@@](C)(c2cc(NC(=O)C(C)(C)F)ccc2F)N=C1N", "note": "[Example 16, (S)—N-(3-(2-Amino-1,4,5,5-tetramethyl-6-oxo-1,4,5,6-tetrahydropyrimidin-4-yl)-4-fluorophenyl)-2-fluoro-2-methylpropanamide]", "IC50": 9}
{"smiles": "CN1C(=O)C(C)(C)[C@@](C)(c2cc(NC(=O)C3(C(F)(F)F)CC3)ccc2F)N=C1N", "note": "[Example 5, 1-Trifluoromethyl-cyclopropanecarboxylic acid [3-((S)-2-amino-1,4,5,5-tetramethyl-6-oxo-1,4,5,6-tetrahydro-pyrimidin-4-yl)-4-fluoro-phenyl]-amide]", "IC50": 11}
{"smiles": "CN1C(=O)C(C)(C)[C@@](C)(c2cccc(NC(=O)C3(C(F)(F)F)CC3)c2)N=C1N", "note": "[Example 2, 1-Trifluoromethyl-cyclopropanecarboxylic acid [3-((R)-2-amino-1,4,5,5-tetramethyl-6-oxo-1,4,5,6-tetrahydro-pyrimidin-4-yl)-phenyl]-amide]", "IC50": 82}
{"smiles": "Cc1nc(C(C)Nc2ccc(F)c([C@@]3(C)N=C(N)N(C)C(=O)C3(C)C)c2)sc1C", "note": "(stereo partly drawn) [Example 126, (S)-2-Amino-6-{5-[1-(4,5-dimethyl-thiazol-2-yl)-ethylamino]-2-fluoro-phenyl}-3,5,5,6-tetramethyl-5,6-dihydro-3H-pyrimidin-4-one]", "IC50": 26}
{"smiles": "CN1C(=O)C(C)(C)[C@@](C)(c2cc(NC(=O)CC(F)(F)F)ccc2F)N=C1N", "note": "[Example 3, N-[3-((S)-2-Amino-1,4,5,5-tetramethyl-6-oxo-1,4,5,6-tetrahydro-pyrimidin-4-yl)-4-fluoro-phenyl]-3,3,3-trifluoro-propionamide]", "IC50": 11}
{"smiles": "CC(CNc1ccc(F)c([C@@]2(C)N=C(N)N(C)C(=O)C2(C)C)c1)C(F)(F)F", "note": "(stereo partly drawn) [Example 83, (S)-2-Amino-6-[2-fluoro-5-(3,3,3-trifluoro-2-methyl-propylamino)-phenyl]-3,5,5,6-tetramethyl-5,6-dihydro-3H-pyrimidin-4-one]", "IC50": 12}
{"smiles": "CCC[C@@]1(c2cccc(NC(=O)C3(C(F)(F)F)CC3)c2)CC(=O)N(C)C(N)=N1", "note": "[Example 14, 1-Trifluoromethyl-cyclopropanecarboxylic acid [3-((S)-2-amino-1-methyl-6-oxo-4-propyl-1,4,5,6-tetrahydro-pyrimidin-4-yl)-phenyl]-amide]", "IC50": 120}
{"smiles": "CN1C(=O)C(C)(C)[C@@](C)(c2cc(NC(=O)C3(O)CC3)ccc2F)N=C1N", "note": "[Example 134, 1-Hydroxy-cyclopropanecarboxylic acid [3-((S)-2-amino-1,4,5,5-tetramethyl-6-oxo-1,4,5,6-tetrahydro-pyrimidin-4-yl)-4-fluoro-phenyl]-amide]", "IC50": 734}
{"smiles": "CCOC(=O)N1CCC(Nc2ccc(F)c([C@@]3(C)N=C(N)N(C)C(=O)C3(C)C)c2)C1", "note": "(stereo partly drawn) [Example 23, 3-[3-((S)-2-Amino-1,4,5,5-tetramethyl-6-oxo-1,4,5,6-tetrahydro-pyrimidin-4-yl)-4-fluoro-phenylamino]-pyrrolidine-1-carboxylic acid ethyl ester]", "IC50": 7}
{"smiles": "CN1C(=O)C(C)(C)[C@@](C)(c2cc(NCc3nn(C)cc3Cl)ccc2F)N=C1N", "note": "[Example 96, (S)-2-Amino-6-{5-[(4-chloro-1-methyl-1H-pyrazol-3-ylmethyl)-amino]-2-fluoro-phenyl}-3,5,5,6-tetramethyl-5,6-dihydro-3H-pyrimidin-4-one]", "IC50": 1}
